Reference: patent publication US4753951A, “Condensed imidazopyridine derivatives useful as psychotropic agents” (Shionogi & Co., Ltd., priority 1985, dated 1988)
pKi: −log10 of the molar value. Like-named read-outs stand apart in the source and are kept apart here.

What was measured:
[1] = tested on: Pentyleneterazole-Induced Convulsion; experiment: Antagonism of Pentyleneterazole-Induced Convulsion (agonistic activity); assay type: in vivo, male mice; conditions: Mus musculus; intravenous; mice; pentylenetetrazole 125 mg/kg, s.c.; 2-h observation; probit; read-out: ED50 (prevention of tonic convulsion and death)
Method: Antagonism of Pentyleneterazole-Induced Convulsion
(§1) Agonistic activity was evaluated in this test. Groups of 8-16 male mice were challenged with a dose of 125 mg/kg, s.c. of pentylenetetrazole immediately after intravenous injection of the test compound. The dose required to prevent tonic convulsion and death in 50% of the animal during a 2-h observation period was calculated by the probit method.

benzodiazepine receptor = experiment: Binding Test to Benzodiazepine Receptor (inhibition of tritium labeled diazepam binding); parameters: species or system Wistar rats; conditions: 2nM tritium labeled diazepam; rat cerebral cortex; 0° C., 6 minutes; calculated from IC50
Method: Binding Test to Benzodiazepine Receptor
This test was carried out in the modified mehtod of Mohler et al. Science, 198, 849-851 (1977).
Receptor preparation was provided from the cerebral cortex of Wistar rats (male, 11 to 13 weeks age). Inhibitory action of the test compound on the specific binding of tritium labeled diazepam to the receptor was evaluated as follows. 2nM tritium labeled diazepam and an aqueous solution of the test compound at 5 or 6 concentrations were incubated with the receptor preparation at 0° C. for 6 minutes. The 50% inhibitory concentration (IC50) was measured by the concentration-response curve.
The inhibitory constant (Ki) was calculated according to the following equation, in which Kd is the dissociation constant of the tritium labeled diazepam and L is the concentration of the labeled ligand.

[2] = tested on: Pentylenetetrazole-Induced Convulsion; experiment: Potentiation of Pentylenetetrazole-Induced Convulsion (inverse agonist activity); assay type: in vivo; conditions: Mus musculus; intravenous; mice; pentylenetetrazole 90 mg/kg s.c. (subconvulsive); 2-h observation; probit; read-out: ED50 (production of tonic convulsion and death)
Method: Potentiation of Pentylenetetrazole-Induced Convulsion
as §1, with “Inverse agonist” for “Agonistic”, “8-16” for “8-16 male”, “90 mg/kg.” for “125 mg/kg,”, “(a subconvulsive dose) immidiately” for “immediately”, “produce” for “prevent”, “animals” for “animal”

conflict behavior = experiment: Anticonflict Test; assay type: in vivo; conditions: Rattus norvegicus; oral; male Wistar rats; 1 hour observation starting 30 minutes after administration; probit; read-out: Anti-conflict activity ED50
Method: The modified method of Geller and Seifter (Psychopharmacol, 1, 482, 1960) was employed. Groups of 5 or more male Wistar rats with well-established conflict behavior were used. A dose was determined as positive when the numbuer of electric shocks (punishment) exceeded more than 12 during a 1 hour observation period starting 30 minutes after oral administration of the test compound. The ED50 was calculated by the probit method.

[3] = tested on: mice gripping the wire with hindpaws; experiment: Traction Test; assay type: in vivo; conditions: Mus musculus, 0.5 h, read-out: Traction Test ED50
Method: The modified method of Courvoisier et al. (in "Psychotropic Drugs", ed. by S. Garattini & R. Ducrot. p 373. Elsevier Publishing Co., Amsterdam, 1957) was employed. Groups of 10 mice were made to hang onto a horizontal metal wire (diameter: 1 mm) by grasping and holding with their forepaws 30 minutes after oral administration of the test compound, and the number of mice gripping the wire with hindpaws within 10 sec was counted. The ED50 was calculated by the probit method.

[4] = oral, mice, 30 minutes after administration, gripping within 10 sec, probit

Molecule `Clc1ccc(-c2nc3cnc4ccccc4c3[nH]2)s1` [Compound C2] has an ED50 [1] of 16 mg/kg and a pKi (benzodiazepine receptor) of 9.01.
Work on `Fc1ccc(-c2nc3cnc4ccccc4c3[nH]2)cc1` [Compound C3, 2-(4-fluorophenyl)-1H-imidazo[4,5-c]quinoline] yielded an ED50 [1] of 2.31 mg/kg and a pKi (benzodiazepine receptor) of 7.80.
In the case of `COc1ccc(-c2nc3cnc4ccccc4c3[nH]2)cc1` [Compound C13], the ED50 [1] was 4.61 mg/kg and the pKi (benzodiazepine receptor) was 8.06.
In the case of `Fc1cccc(-c2nc3cnc4ccccc4c3[nH]2)c1` [Compound C20], the ED50 [1] was 3.9 mg/kg and the pKi (benzodiazepine receptor) was 7.56.
`Fc1ccccc1-c1nc2cnc3ccccc3c2[nH]1` [Compound C21] showed an ED50 [1] of 2.05 mg/kg and a pKi (benzodiazepine receptor) of 8.74.
`Clc1ccc2c(c1)ncc1nc(-c3cccs3)[nH]c12` [Compound C35] gave an ED50 [2] of 1.76 mg/kg and a pKi (benzodiazepine receptor) of 7.71.
For `Cc1csc(-c2nc3cnc4cc(Cl)ccc4c3[nH]2)c1` [Compound C38], the ED50 [1] was 8.52 mg/kg and the pKi (benzodiazepine receptor) was 7.81.
`Cc1cc(-c2nc3cnc4ccccc4c3[nH]2)on1` [Compound C45, 2-(3-methylisoxazol-5-yl)-1H-imidazo[4,5-c]quinoline] showed an ED50 [1] of 0.71 mg/kg, an ED50 (conflict behavior) of 2.68 mg/kg and a pKi (benzodiazepine receptor) of 9.24. The ED50 [3, 4] was > 200 mg/kg.
`CCc1cc(-c2nc3cnc4ccccc4c3[nH]2)on1` [Compound C46] showed an ED50 [1] of 1.2 mg/kg and a pKi (benzodiazepine receptor) of 9.01.
For `Cc1cc(-c2nc3cnc4cc(F)ccc4c3[nH]2)on1` [Compound C48], the ED50 [1] was 0.59 mg/kg, the ED50 (conflict behavior) was 1.8 mg/kg and the pKi (benzodiazepine receptor) was 9.04. The ED50 [3, 4] was > 200 mg/kg.
`Cc1cc(-c2nc3cnc4ccc(F)cc4c3[nH]2)on1` [Compound C49] was tested, and the ED50 [1] was 0.32 mg/kg, the ED50 (conflict behavior) was 1.19 mg/kg and the pKi (benzodiazepine receptor) was 9.63. The ED50 [3, 4] was > 200 mg/kg.
Work on `c1ccc2c(c1)ncc1nc(-c3ccon3)[nH]c12` [Compound C58] yielded an ED50 [2] of 1.65 mg/kg and a pKi (benzodiazepine receptor) of 9.28.
`Clc1ccc2c(c1)ncc1nc(-c3ccon3)[nH]c12` [Compound C59] gave an ED50 [1] of 3.01 mg/kg and a pKi (benzodiazepine receptor) of 8.91.
Work on `Fc1ccc2c(c1)ncc1nc(-c3ccon3)[nH]c12` [Compound C60] yielded a pKi (benzodiazepine receptor) of 9.31.
Work on `Cc1cc(-c2nc3cnc4ccccc4c3[nH]2)no1` [Compound C61] yielded an ED50 [1] of 0.74 mg/kg and a pKi (benzodiazepine receptor) of 9.18.
For `Cc1cc(-c2nc3cnc4ccccc4c3[nH]2)ns1` [Compound C67], the pKi (benzodiazepine receptor) was 8.68.
`Cc1cc(-c2nc3cnc4ccccc4c3[nH]2)sn1` [Compound C68] showed a pKi (benzodiazepine receptor) of 8.92.
Molecule `c1ccc2c(c1)ncc1nc(-c3cnns3)[nH]c12` [Compound C70] has a pKi (benzodiazepine receptor) of 8.27.
With `Cc1csc(-c2nc3cnc4ccccc4c3[nH]2)n1` [Compound C71] the ED50 [2] was 4.18 mg/kg and the pKi (benzodiazepine receptor) was 8.34.
In the case of `Cc1cc2c(ncc3nc(-c4cccs4)[nH]c32)s1` [Compound F2, 2-(Thien-2-yl)-7-methyl-1H-imidazo[4,5-d]thieno[2,3-b]pyridine], the ED50 [2] was 0.13 mg/kg and the pKi (benzodiazepine receptor) was 7.50.
`c1csc(-c2nc3cnc4sccc4c3[nH]2)c1` [Compound F7] showed an ED50 [2] of 0.5 mg/kg and a pKi (benzodiazepine receptor) of 6.14.
Work on `c1csc(-c2nc3cnc4ccsc4c3[nH]2)c1` [Compound K5] yielded an ED50 [2] of 0.54 mg/kg and a pKi (benzodiazepine receptor) of 8.00.
`CN1C(=O)CN=C(c2ccccc2)c2cc(Cl)ccc21` [Diazepam, reference compound] showed an ED50 (conflict behavior) of 1.05 mg/kg and an ED50 ([3]; po) of 5.06 mg/kg.
